The compounds below were run against IGF-1R (Homo sapiens (Human), UniProt P08069) (assay: Example B-1: IGF-1R Assay (PC3 cells, IGF1 stimulation, AlphaLISA)). Details: 200 ng/mL IGF1 stimulation, read-out: Biological Activity against IGF-1R IC50.
Assay type: cell-based
Procedure, shortened: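 Readout is AlphaLISA signal from lysed PC3 cells, expressed as % inhibition versus vehicle and EC80 controls and banded by IC50. Before lysis, the cells were starved of serum for 2 h, exposed to 3× serially diluted compound for 2 h, and stimulated for 30 min with 200 ng/mL IGF1 (final).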

IGF-1R, sequence (P08069 31-1367): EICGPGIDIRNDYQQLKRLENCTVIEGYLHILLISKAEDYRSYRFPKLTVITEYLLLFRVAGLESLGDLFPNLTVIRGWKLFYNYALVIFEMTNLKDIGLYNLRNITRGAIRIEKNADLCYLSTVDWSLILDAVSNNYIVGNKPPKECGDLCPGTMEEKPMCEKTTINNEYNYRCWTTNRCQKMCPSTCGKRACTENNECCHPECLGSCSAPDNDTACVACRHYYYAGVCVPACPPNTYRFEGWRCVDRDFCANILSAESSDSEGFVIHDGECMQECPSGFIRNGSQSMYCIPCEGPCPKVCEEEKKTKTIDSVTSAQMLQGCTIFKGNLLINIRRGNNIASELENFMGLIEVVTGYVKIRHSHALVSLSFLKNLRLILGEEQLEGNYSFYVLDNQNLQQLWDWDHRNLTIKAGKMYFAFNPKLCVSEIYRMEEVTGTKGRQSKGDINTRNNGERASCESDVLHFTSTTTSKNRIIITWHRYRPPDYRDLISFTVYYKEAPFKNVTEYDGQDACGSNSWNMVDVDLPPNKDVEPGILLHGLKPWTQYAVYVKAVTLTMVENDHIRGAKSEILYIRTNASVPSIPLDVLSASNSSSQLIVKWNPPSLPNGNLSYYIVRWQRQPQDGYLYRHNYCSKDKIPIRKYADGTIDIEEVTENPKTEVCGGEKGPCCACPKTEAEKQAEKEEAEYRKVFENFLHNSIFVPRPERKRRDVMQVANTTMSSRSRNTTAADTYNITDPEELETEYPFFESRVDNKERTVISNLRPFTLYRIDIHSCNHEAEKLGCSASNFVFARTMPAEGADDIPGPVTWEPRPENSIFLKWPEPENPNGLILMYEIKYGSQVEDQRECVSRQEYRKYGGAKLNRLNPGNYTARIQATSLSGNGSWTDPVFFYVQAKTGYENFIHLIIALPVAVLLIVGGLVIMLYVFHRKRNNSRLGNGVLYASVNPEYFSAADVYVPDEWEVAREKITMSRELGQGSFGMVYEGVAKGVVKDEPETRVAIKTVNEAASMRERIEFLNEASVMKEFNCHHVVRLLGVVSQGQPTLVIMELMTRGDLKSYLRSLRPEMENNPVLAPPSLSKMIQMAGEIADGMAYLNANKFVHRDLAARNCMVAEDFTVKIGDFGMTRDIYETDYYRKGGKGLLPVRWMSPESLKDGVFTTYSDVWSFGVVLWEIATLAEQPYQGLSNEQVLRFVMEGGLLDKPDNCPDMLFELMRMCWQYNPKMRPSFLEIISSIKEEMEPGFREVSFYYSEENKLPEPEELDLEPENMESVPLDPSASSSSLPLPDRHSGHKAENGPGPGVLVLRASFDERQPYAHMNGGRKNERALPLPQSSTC

**Q.** `COc1cc(Nc2nccc(Nc3cc4ccccc4[nH]c3=O)n2)ccc1O[C@H]1C[C@H](N(C)C)C1` [Compound 249, 3-(2-{3-methoxy-4-[(1r,3r)-3-(dimethylamino)cyclobutoxy]phenyl-amino}-4-pyrimidinylamino)-2(1H)-quinolinone] was tested. Which IC50 did it give?
**A.** The IC50 was no more than 500 nM.

**Q.** With `COc1cc(Nc2nccc(Nc3cc4ccccc4[nH]c3=O)n2)ccc1OCCCN1CCCCC1` [Compound 250, 3-{2-[3-methoxy-4-(3-piperidinopropoxy)phenylamino]-4-pyrimidinylamino}-2(1H)-quinolinone] as the compound, how does the IC50 read?
**A.** The IC50 was no more than 500 nM.

**Q.** `O=c1[nH]c2ccccc2cc1Nc1ccnc(Nc2ccc(OCCCN3CCOCC3)cc2)n1` [Compound 251, 3-{2-[p-(3-morpholinopropoxy)phenylamino]-4-pyrimidinylamino}-2(1H)-quinolinone] was tested. Which IC50 did it give?
**A.** Its IC50 is no more than 500 nM.

**Q.** With `COc1cc(Nc2nc(N)cc(Nc3cnc4cc(F)c(F)cc4c3)n2)cnc1O[C@H]1C[C@@H](N(C)C)C1` [Compound 252, 6-amino-4-(6,7-difluoro-3-quinolylamino)-2-{5-methoxy-6-[(1s,3s)-3-(dimethylamino)cyclobutoxy]-3-pyridylamino}pyrimidine] as the compound, how does the IC50 read?
**A.** The IC50 was 2000 to 10000 nM.

**Q.** For `COc1cc(Nc2nccc(Nc3cnc4cc(F)c(F)cc4c3)n2)cnc1O[C@@H]1C[C@H](N(C)C)C1(C)C` [Compound 254, 2-{6-[(1R,3S)-3-(dimethylamino)-2,2-dimethylcyclobutoxy]-5-methoxy-3-pyridylamino}-4-(6,7-difluoro-3-quinolylamino)pyrimidine], which IC50 is on record?
**A.** Its IC50 is no more than 500 nM.

**Q.** How did the IC50 turn out when `COc1cc(Nc2ncc(F)c(Nc3cc4ccccc4nc3C(N)=O)n2)cnc1O[C@H]1C[C@@H](N(C)C)C1` [Compound 255, 3-(5-fluoro-2-{5-methoxy-6-[(1s,3s)-3-(dimethylamino)cyclobutoxy]-3-pyridylamino}-4-pyrimidinylamino)-2-quinolinecarboxamide] was run?
**A.** The IC50 was no more than 500 nM.

**Q.** With `COc1cc(Nc2nccc(Nc3cc4c(nc3C(N)=O)CCCC4)n2)ccc1O[C@H]1C[C@@H](N(C)C)C1` [Compound 256, 3-(2-{3-methoxy-4-[(1s,3s)-3-(dimethylamino)cyclobutoxy]phenylamino}-4-pyrimidinylamino)-5,6,7,8-tetrahydro-2-quinolinecarboxamide] as the compound, how does the IC50 read?
**A.** Its IC50 is no more than 500 nM.

**Q.** `COc1cc(Nc2nccc(Nc3cnc4ccc(Cl)cc4c3)n2)cnc1OC1CCNCC1(F)F` (centres unmarked) [Compound 257, 4-(6-chloro-3-quinolylamino)-2-[6-(3,3-difluoro-4-piperidyloxy)-5-methoxy-3-pyridylamino]pyrimidine] was tested. Which IC50 did it give?
**A.** The IC50 was no more than 500 nM.

**Q.** Which IC50 does the source give for `COc1cc(Nc2nccc(Nc3cnc4ccc(Cl)cc4c3)n2)cnc1O[C@@H]1C[C@H](N(C)C)C1(C)C` [Compound 258, 2-{6-[(1R,3S)-3-(dimethylamino)-2,2-dimethylcyclobutoxy]-5-methoxy-3-pyridylamino}-4-(6-chloro-3-quinolylamino)pyrimidine] here?
**A.** The IC50 was no more than 500 nM.

**Q.** Which IC50 does the source give for `COc1cc(Nc2nccc(Nc3cnc4c(c3)OC(CN(C)C)CO4)n2)ccc1O[C@H]1C[C@@H](N(C)C)C1` (some centres unmarked) [Compound 259, 4-{2-[(dimethylamino)methyl]-2,3-dihydro-1,4-dioxa-5-aza-7-naphthylamino}-2-{3-methoxy-4-[(1s,3s)-3-(dimethylamino)cyclobutoxy]phenylamino}pyrimidine] here?
**A.** The IC50 was no more than 500 nM.

**Q.** How did the IC50 turn out when `CN(C)[C@H]1C[C@@H](Oc2ccc(Nc3nccc(Nc4cnc5c(c4)OCCO5)n3)cc2)C1` [Compound 260, 4-(2,3-dihydro-1,4-dioxa-5-aza-7-naphthylamino)-2-{p-[(1s,3s)-3-(dimethylamino)cyclobutoxy]phenylamino}pyrimidine] was run?
**A.** The IC50 was no more than 500 nM.

**Q.** `COc1cc(Nc2nccc(Nc3cc4cccc(F)c4nc3O)n2)cnc1OC1CCNCC1` [Compound 261, 8-fluoro-3-{2-[5-methoxy-6-(4-piperidyloxy)-3-pyridylamino]-4-pyrimidinylamino}-2-quinolinol] was tested. Which IC50 did it give?
**A.** Its IC50 is no more than 500 nM.

**Q.** Which IC50 does the source give for `COc1cc(Nc2cc(Nc3cnc4ccccc4n3)ccn2)ccc1O[C@H]1C[C@@H](N(C)C)C1` [Compound 262, 2-{3-methoxy-4-[(1s,3s)-3-(dimethylamino)cyclobutoxy]phenylamino}-4-(2-quinoxalinylamino)pyridine] here?
**A.** Its IC50 is no more than 500 nM.

**Q.** How did the IC50 turn out when `COc1cc(Nc2nccc(Nc3cnc4cc(F)c(F)cc4c3)n2)cnc1OC1CCNCC1(F)F` (centres unmarked) [Compound 263, 2-[6-(3,3-difluoro-4-piperidyloxy)-5-methoxy-3-pyridylamino]-4-(6,7-difluoro-3-quinolylamino)pyrimidine] was run?
**A.** The IC50 was no more than 500 nM.

**Q.** How did the IC50 turn out when `COc1cc(Nc2nccc(Nc3cnc4ccccc4c3)c2F)ccc1O[C@H]1C[C@@H](N(C)C)C1` [Compound 264, 3-fluoro-2-{3-methoxy-4-[(1s,3s)-3-(dimethylamino)cyclobutoxy]phenylamino}-4-(3-quinolylamino)pyridine] was run?
**A.** Its IC50 is greater than 10000 nM.

**Q.** Which IC50 does the source give for `COc1cc(Nc2cc(Nc3cnc4ccccc4c3)ccn2)ccc1O[C@H]1C[C@@H](N(C)C)C1` [Compound 265, 2-{3-methoxy-4-[(1s,3s)-3-(dimethylamino)cyclobutoxy]phenylamino}-4-(3-quinolylamino)pyridine] here?
**A.** Its IC50 is 2000 to 10000 nM.

**Q.** How did the IC50 turn out when `COc1cc(Nc2nccc(Nc3ccc4c(O)nccc4c3)n2)ccc1O[C@H]1C[C@@H](N(C)C)C1` [Compound 266, 6-(2-{3-methoxy-4-[(1s,3s)-3-(dimethylamino)cyclobutoxy]phenylamino}-4-pyrimidinylamino)-1-isoquinolinol] was run?
**A.** The IC50 was no more than 500 nM.

**Q.** `COc1cc(Nc2nccc(Nc3cnc4ccccc4c3)n2)cc(C#N)c1O[C@H]1C[C@H](N(C)C)C1` [Compound 267, 3-methoxy-5-[4-(3-quinolylamino)-2-pyrimidinylamino]-2-[(1r,3r)-3-(dimethylamino)cyclobutoxy] benzonitrile] was tested. Which IC50 did it give?
**A.** The IC50 was no more than 500 nM.

**Q.** Which IC50 does the source give for `COc1cc(Nc2nccc(Nc3cnc4c(c3)OCC(C)(C)O4)n2)ccc1O[C@H]1C[C@@H](N(C)C)C1` [Compound 268, 4-(3,3-dimethyl-2,3-dihydro-1,4-dioxa-5-aza-7-naphthylamino)-2-{3-methoxy-4-[(1s,3s)-3-(dimethylamino)cyclobutoxy]phenylamino}pyrimidine] here?
**A.** The IC50 was no more than 500 nM.

**Q.** How did the IC50 turn out when `COc1cc(Nc2nccc(Nc3cnc4c(F)cccc4c3)n2)cnc1O[C@H]1C[C@@H](N(C)C)C1` [Compound 270, 4-(8-fluoro-3-quinolylamino)-2-{5-methoxy-6-[(1s,3s)-3-(dimethylamino)cyclobutoxy]-3-pyridylamino}pyrimidine] was run?
**A.** The IC50 was no more than 500 nM.

**Q.** With `COc1cc(Nc2nccc(Nc3cnc4c(c3)OCC(C)(C)O4)n2)cnc1O[C@H]1C[C@@H](N(C)C)C1` [Compound 271, 4-(3,3-dimethyl-2,3-dihydro-1,4-dioxa-5-aza-7-naphthylamino)-2-{5-methoxy-6-[(1s,3s)-3-(dimethylamino)cyclobutoxy]-3-pyridylamino}pyrimidine] as the compound, how does the IC50 read?
**A.** Its IC50 is no more than 500 nM.

**Q.** How did the IC50 turn out when `COc1cc(Nc2nccc(Nc3cnc4cc(F)cnc4c3)n2)ccc1O[C@H]1C[C@@H](N(C)C)C1` [Compound 272, 4-(7-fluoro-1,5-diaza-3-naphthylamino)-2-{3-methoxy-4-[(1s,3s)-3-(dimethylamino)cyclobutoxy]phenylamino}pyrimidine] was run?
**A.** The IC50 was no more than 500 nM.

**Q.** With `COc1cc(Nc2nccc(Nc3cnc4c(c3)OCCO4)n2)ccc1O[C@H]1CC[C@@H](N(C)C)CC1` [Compound 273] as the compound, how does the IC50 read?
**A.** The IC50 was no more than 500 nM.

**Q.** With `COc1cc(Nc2nccc(Nc3cnc4cncc(F)c4c3)n2)ccc1O[C@H]1C[C@@H](N(C)C)C1` [Compound 274, 4-(5-fluoro-1,7-diaza-3-naphthylamino)-2-{3-methoxy-4-[(1s,3s)-3-(dimethylamino)cyclobutoxy]phenylamino}pyrimidine] as the compound, how does the IC50 read?
**A.** Its IC50 is 2000 to 10000 nM.

**Q.** How did the IC50 turn out when `COc1cc(Nc2nccc(Nc3ccc(Cl)nc3C(N)=O)n2)ccc1O[C@H]1C[C@@H](N(C)C)C1` [Compound 275, 6-chloro-3-(2-{3-methoxy-4-[(1s,3s)-3-(dimethylamino)cyclobutoxy]phenylamino}-4-pyrimidinylamino)-2-pyridinecarboxamide] was run?
**A.** The IC50 was no more than 500 nM.

**Q.** Which IC50 does the source give for `COc1cc(Nc2nccc(Nc3cnc4c(c3)OCCO4)n2)cnc1O[C@H]1C[C@@H](N(C)C)C1` [Compound 276, 4-(2,3-dihydro-1,4-dioxa-5-aza-7-naphthylamino)-2-{5-methoxy-6-[(1s,3s)-3-(dimethylamino)cyclobutoxy]-3-pyridylamino}pyrimidine] here?
**A.** The IC50 was no more than 500 nM.

**Q.** For `COc1ccc2ncc(Nc3ccnc(Nc4ccc(O[C@H]5C[C@@H](N(C)C)C5)c(OC)c4)n3)cc2c1` [Compound 277, 4-(6-methoxy-3-quinolylamino)-2-{3-methoxy-4-[(1s,3s)-3-(dimethylamino)cyclobutoxy]phenylamino}pyrimidine], which IC50 is on record?
**A.** The IC50 was no more than 500 nM.

**Q.** How did the IC50 turn out when `COc1cc(Nc2nccc(Nc3cnc4cc(Cl)cnc4c3)n2)ccc1O[C@H]1C[C@@H](N(C)C)C1` [Compound 278, 4-(7-chloro-1,5-diaza-3-naphthylamino)-2-{3-methoxy-4-[(1s,3s)-3-(dimethylamino)cyclobutoxy]phenylamino}pyrimidine] was run?
**A.** Its IC50 is no more than 500 nM.

**Q.** `COc1cc(Nc2nccc(Nc3cnc4cc(Cl)cnc4c3)n2)cnc1O[C@H]1C[C@@H](N(C)C)C1` [Compound 279, 4-(7-chloro-1,5-diaza-3-naphthylamino)-2-{5-methoxy-6-[(1s,3s)-3-(dimethylamino)cyclobutoxy]-3-pyridylamino}pyrimidine] was tested. Which IC50 did it give?
**A.** Its IC50 is 500 to 2000 nM.

**Q.** For `COc1cc(Nc2nccc(Nc3cnc4c(cnn4C)c3)n2)ccc1O[C@H]1C[C@@H](N(C)C)C1` [Compound 280, 2-{3-methoxy-4-[(1s,3s)-3-(dimethylamino)cyclobutoxy]phenylamino}-4-(1-methyl-1H-1,2,7-triazainden-5-ylamino)pyrimidine], which IC50 is on record?
**A.** The IC50 was no more than 500 nM.

**Q.** How did the IC50 turn out when `COc1cc(Nc2nccc(Nc3cnc4[nH]cc(C)c4c3)n2)ccc1O[C@H]1C[C@@H](N(C)C)C1` [Compound 281, 2-{3-methoxy-4-[(1s,3s)-3-(dimethylamino)cyclobutoxy]phenylamino}-4-(3-methyl-1H-1,7-diazainden-5-ylamino)pyrimidine] was run?
**A.** The IC50 was no more than 500 nM.

**Q.** `COc1cc(Nc2nccc(Nc3cnc4c(ccn4C)c3)n2)ccc1O[C@H]1C[C@@H](N(C)C)C1` [Compound 282, 2-{3-methoxy-4-[(1s,3s)-3-(dimethylamino)cyclobutoxy]phenylamino}-4-(1-methyl-1H-1,7-diazainden-5-ylamino)pyrimidine] was tested. Which IC50 did it give?
**A.** The IC50 was no more than 500 nM.

Reference: US20250171431A1, “HETEROCYCLIC INHIBITORS OF IGF-1R FOR TREATMENT OF DISEASE” (HORIZON THERAPEUTICS IRELAND DAC, priority 2023, published 2025)
